Values joined by “and” are separate entries in the source; they are usually repeats but may differ in a detail not shown here. Equal entries are not always repeated.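 1) Cells in 96-well plates. 2) Compound, 48 h, 5 concentrations. 3) Linear interpolation between surrounding doses. 4) Unreached endpoint = highest concentration. GI50 marks 50% less growth. TGI marks complete inhibition of growth.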
Key:
Assay in all cases: NCI tumour cell line growth inhibition, 48 h
[1] = system: LOX IMVI melanoma
[2] = system: U251 CNS
[3] = system: NCI-H23 lung
[4] = system: SF-539 CNS
[5] = system: OVCAR-4 ovarian
[6] = system: HT29 colon
[7] = system: NCI-H460 lung
[8] = system: DU-145 prostate
[9] = system: K-562 leukemia
[10] = system: SR leukemia

Structure (SMILES)	TGI [1] [µM]	TGI [2] [µM]	TGI [3]	TGI [4]	TGI [5]	TGI [6] [µM]	TGI [7] [µM]	GI50 [2] [µM]	GI50 [3]	GI50 [8] [µM]	TGI [8] [µM]	GI50 [9] [µM]	TGI [9] [µM]	GI50 [4] [µM]	GI50 [5] [µM]	GI50 [6] [µM]	GI50 [7] [µM]	TGI [10]	GI50 [1] [µM]	GI50 [10] [µM]
CCCCCCCCCCC/C(=N/O)c1ccc(O)c2ncccc12	13.6	23.5	57.4 µM	4.91 µM	19.2 µM	17.2	17	–	–	–	–	–	–	–	–	–	–	–	–	–
OCCCCC#Cc1ccccc1C#Cc1ccccc1	–	23.8	51.4 µM	24.1 µM	53.2 µM	> 100	62.6	11.5	19.8 µM	5.22	20.2	22.1	> 100	10.8	18	13.2	22.4	–	–	–
Clc1ccc(Cl)c2[s+]snc12	> 100	> 100	> 100 µM	> 100 µM	> 100 µM	68.3	> 88.3	–	–	–	–	–	> 67.9	–	–	–	–	> 100 µM	–	–
N[C@@H](Cc1c[nH]c2ccccc12)C(=O)NC1CCN(C(=O)c2c[nH]c3ccccc23)CC1	> 100	> 100	> 100 µM	> 100 µM	> 100 µM	> 100	> 100	> 100	> 100 µM	72.2	> 100	> 100	> 100	> 100	69.2	> 100	79.9	–	96.1	–
COc1ccc(C=C2C(=O)OC(C)(C)OC2=O)cc1OC	–	> 100	> 100 µM	–	> 100 µM	> 100	> 100	–	–	–	–	–	> 100	–	–	–	–	–	–	–
CC12CCC3C(CC=C4CC(O)CCC43C)C1C/C(=C\N1CCCC1)C2=O (stereo not drawn)	> 100	> 100	> 100 µM	> 100 µM	> 100 µM	> 100	> 100	> 100	> 100 µM	> 100	> 100	55.8	> 100	> 100	61	> 100	> 100	–	> 100	–
O=C1NC(=S)NC(=O)C1=Cc1cc2c(cc1[N+](=O)[O-])OCO2	–	> 100	–	> 100 µM	> 100 µM	–	> 100	–	–	–	–	–	> 100	–	–	–	–	> 100 µM	–	–
CCCCCCCCCCCCCCCCCC(=O)OCC(CN(C)CCN(C)C)OC(=O)CCCCCCCCCCCCCCCCC (stereo not drawn)	> 100	> 100	> 100 µM	–	> 100 µM	> 100	> 100	–	–	–	–	–	> 100	–	–	–	–	64.2 µM	–	–
COC(=O)C1CC(C(=O)OC)c2nc3cc(C)ccc3nc21 (stereo not drawn)	> 100	> 100	> 100 µM	> 100 µM	> 100 µM	> 100	> 100	–	–	–	–	–	> 100	–	–	–	–	–	–	–
N#CC(C(=O)/C(=N/N)C(C#N)c1ccc(Cl)cc1)c1ccc(Cl)cc1 (stereo not drawn)	> 100	> 100	> 100 µM	> 100 µM	> 100 µM	> 100	> 100	–	–	–	–	–	> 100	–	–	–	–	–	–	–
CC(=O)O[C@H]1C(=O)[C@@]2(C)C(C(OC(=O)c3ccccc3)[C@]3(O)CC(OC(=O)[C@H](OC(=O)CCC(=O)O)C(NC(=O)c4ccccc4)c4ccccc4)C(C)=C1C3(C)C)C1(OC(C)=O)COC1C[C@@H]2OC(=O)CCC(=O)O (stereo partly drawn)	> 100	> 100	> 100 µM	2.72 µM	> 100 µM	–	–	–	–	–	–	–	–	–	–	–	–	> 23.3 µM	–	< 0.0202
CCOC(=O)CC(=O)Sc1ccccc1	26.8	40.2	70.7 µM	28.6 µM	> 100 µM	48.7	73.8	–	–	–	–	–	58.7	–	–	–	–	58.1 µM	–	–
CCCN(CCCCC(NC(C)=O)C(=O)NCc1ccccc1)C(=O)NCCCl (stereo not drawn)	–	> 100	> 100 µM	> 100 µM	> 100 µM	> 100	> 100	–	–	–	–	–	> 100	–	–	–	–	> 100 µM	–	–
O=c1c2ccccc2c2ccccc2c(=O)n1-c1cc2c3ccccc3ccc2c2ccccc12	> 100	> 100	> 100 µM	> 100 µM	> 100 µM	> 100	> 100	–	–	–	> 100	–	–	–	–	–	–	–	–	–
Cc1c(/C=N/NS(=O)(=O)c2ccccc2)no[n+]1[O-]	–	> 100	> 100 µM	> 100 µM	> 100 µM	> 100	–	–	–	–	–	–	> 100	–	–	–	–	> 100 µM	–	–
CCOP(=O)(OCC)C(NC(c1ccccc1)c1ccccc1)c1ccccc1 (stereo not drawn)	28.5	28.5	28.7 µM	33.1 µM	> 100 µM	> 100	41	14.5	14.4 µM	15	30	7.4	22.2	17.2	51.8	32.2	17.2	–	14	–
CCOc1ccc(N=Cc2cccc3cccnc23)cc1	–	> 100	> 100 µM	> 100 µM	> 100 µM	> 100	> 100	–	–	–	–	–	82.3	–	–	–	–	–	–	–
Clc1ccc(-n2nnc(C3=NCCN3)c2-c2ccccc2)cc1	> 100	> 100	> 100 µM	> 100 µM	> 100 µM	> 100	> 100	–	–	–	–	–	> 100	–	–	–	–	> 100 µM	–	–
COC(=O)C1=C(C)N(NC(N)=O)C2(N)N(NC(N)=O)C(C)=C(C(=O)OC)C12C(=O)OC (stereo not drawn)	> 100	> 100	> 100 µM	> 100 µM	> 100 µM	> 100	> 100	–	–	–	–	–	> 100	–	–	–	–	–	–	–
COc1ccc2[nH]c(-c3ccccn3)cc(=O)c2c1	> 100	–	> 100 µM	91.9 µM	> 100 µM	> 100	> 100	–	–	–	–	–	> 100	–	–	–	–	–	–	–
[N-]=[N+]=NC(c1cn(C2CC(O)C(CO)O2)c(=O)[nH]c1=O)C(Br)I (stereo not drawn)	> 100	> 100	> 100 µM	> 100 µM	–	> 100	> 100	–	–	–	–	–	> 100	–	–	–	–	> 100 µM	–	–
O=C1C(Cl)C(c2cccc(O)c2)N1n1cnc2ccccc2c1=O (stereo not drawn)	> 100	> 100	> 100 µM	–	> 100 µM	> 100	> 100	–	–	–	–	–	> 100	–	–	–	–	> 100 µM	–	–

Structure (SMILES)	TGI [1] [µM]	TGI [2] [µM]	TGI [3]	TGI [4]	TGI [5]	TGI [6] [µM]	TGI [7] [µM]	GI50 [2] [µM]	GI50 [3]	GI50 [8] [µM]	TGI [8] [µM]	GI50 [9] [µM]	TGI [9] [µM]	GI50 [4] [µM]	GI50 [5] [µM]	GI50 [6] [µM]	GI50 [7] [µM]	TGI [10]	GI50 [1] [µM]	GI50 [10] [µM]
CC(O)/C=C/C(CCC(C)CO)C(C)C (stereo not drawn)	> 100	> 100	> 100 µM	> 100 µM	> 100 µM	> 100	> 100	–	–	–	–	–	> 100	–	–	–	–	–	–	–
Cc1cn(C2CC(F)C(CO)O2)c(=O)[nH]c1=O (stereo not drawn)	> 100	–	> 100 µM	–	> 100 µM	> 100	> 100	–	> 100 µM	> 100	> 100	> 100	> 100	–	> 100	98.8	0.963	> 100 µM	> 100	> 100
CC1OC(n2ncc(=O)[nH]c2=O)C=CC1=O (stereo not drawn)	> 100	> 100	> 100 µM and 37.3 µM	> 100 µM and 47.9 µM	> 100 µM	> 100	> 100	–	34.7 µM and 16.5 µM	–	–	–	> 100	–	–	–	–	> 100 µM and 92.9 µM	–	–
COc1ccc(/C=N/N=C(\N)NO)cc1OC	> 100	> 100	> 100 µM	64.9 µM	> 100 µM	> 100	> 100	–	–	–	–	–	> 100	–	–	–	–	> 100 µM	–	–
O=C1C=C[C@@]23CC1C(O)C[C@H]2C=Cc1ccccc13 (stereo partly drawn)	> 100	–	–	> 100 µM	> 100 µM	> 100	> 100	–	–	–	–	–	> 100	–	–	–	–	–	–	–
O=C1C(Cl)=C(Cl)C(=O)N1C1C2CC3CC(C2)CC1C3 (stereo not drawn)	> 100	> 100	> 100 µM	> 100 µM	> 100 µM	> 100	> 100	–	–	–	–	–	> 92.2	–	–	–	–	> 100 µM	–	–
CC(=O)Nc1ccc(/C=C/[N+](=O)[O-])cc1	3.91	11.6	10.9 µM	6.35 µM	7.97 µM	3.93	20.7	–	–	–	> 43.4	–	8.57	–	–	–	–	–	–	–
C/C(O)=C(\N=O)C(=O)NCCc1ccccc1	> 58	> 100	> 100 µM	> 100 µM	> 100 µM	> 100	> 58.4	–	–	–	–	–	> 100	–	–	–	–	> 100 µM	–	–
N#CC(=S)Nc1cccc(Cl)c1	> 100	> 100	> 100 µM	93.7 µM	> 100 µM	> 100	> 100	–	–	–	> 100	–	> 100	–	–	–	–	–	–	–
CC(=O)OC1C(=O)C(O)C(C)OC1O[C@@H]1C[C@@]2(C)[C@@H]3CC=C4[C@@H](C[C@H](O)C(=O)C4(C)C)[C@]3(C)C(=O)C[C@]2(C)[C@H]1[C@@](C)(O)C(=O)/C=C/C(C)(C)O (stereo partly drawn)	2.76	5.41	> 10 µM	1.97 µM	5.51 µM	> 10	> 10	–	–	–	–	–	> 10	–	–	–	–	> 10 µM	–	–
O=C1c2cccc3cc([N+](=O)[O-])cc(c23)C(=O)N1CCNCCNCCNCCN1C(=O)c2cccc3cc([N+](=O)[O-])cc(c23)C1=O	–	0.0206	–	0.304 µM and 0.357 µM	0.0473 µM and 0.415 µM	–	0.0413	–	–	–	–	–	0.229	–	< 0.001	–	–	–	–	–
[Cl][Bi]([O]c1ccccn1)[O]c1ccccn1	> 100	> 100	> 100 µM	> 100 µM	> 100 µM	–	–	> 100	> 100 µM	–	–	–	–	> 100	> 100	–	–	> 100 µM	> 100	> 100
CCN1C2=NC(=O)N(C)C(=O)C2(Cl)C(C(SC)S(=O)(=O)c2ccc(C)cc2)c2ccccc21 (stereo not drawn)	> 100	> 100	50.4 µM	> 100 µM	58.9 µM	> 100	> 100	–	–	–	–	–	55.1	–	–	–	–	–	–	–
Oc1ccc(Cc2ccc(O)c3ncccc23)c2cccnc12	> 100	> 100	> 100 µM	–	> 100 µM	> 100	> 100	0.0355	0.0448 µM	0.0564	> 100	0.0425	> 100	–	0.371	> 100	0.0323	–	0.0402	–
O=c1n(C2CCCCC2)c(=C(Cl)Cl)c(=C(Cl)Cl)n1C1CCCCC1	> 100	> 100	> 100 µM	> 100 µM	> 100 µM	> 100	> 100	–	–	–	–	–	> 100	–	–	–	–	> 100 µM	–	–
Cc1cccc(C(C)(C)C)c1NC(=O)C(=O)C(C(=O)/C=C\c1ccccc1)C1OC(=O)c2ccccc21 (stereo not drawn)	> 100	> 100	> 100 µM	> 100 µM	> 100 µM	> 100	> 100	–	–	–	–	–	> 100	–	–	–	–	> 100 µM	–	–
CC(C)N(C(=O)C12C3C4C5(C#N)C3C1(I)C5C42I)C(C)C (stereo not drawn)	> 66.1	> 100	> 100 µM	> 100 µM	> 77.4 µM	> 100	> 100	–	–	–	–	–	> 93.3	–	–	–	–	> 100 µM	–	–
C/C(=N/S(=O)(=O)c1ccc(Cl)c(Cl)c1)OCC(C)(C)C	> 100	> 100	> 100 µM	> 100 µM	> 100 µM	> 100	> 100	–	–	–	> 100	–	> 100	–	–	–	–	–	–	–
CSc1nc(NC2OCC(OC(C)=O)C(OC(C)=O)C2OC(C)=O)c2c(OC(C)=O)c(C)c(=O)oc2n1 (stereo not drawn)	> 100	> 100	> 100 µM	> 100 µM	> 100 µM	> 100	> 100	–	–	–	–	–	> 100	–	–	–	–	–	–	–
CCCCCCCCCC(=O)CC(=O)c1ccc(O)cc1O	38.7	64.9	59.8 µM	96.5 µM	> 100 µM	> 100	> 100	–	–	–	–	–	> 100	–	–	–	–	44.9 µM	–	–
O=S(=O)([O-])c1cccc2cccc(N=Cc3ccccc3[O-])c12.O=S(=O)([O-])c1cccc2cccc(N=Cc3ccccc3[O-])c12.[O]=[U]=[O]	> 100	> 100	> 100 µM	> 100 µM	> 100 µM	> 100	> 100	30.8	51.5 µM	–	–	35.5	> 100	36.3	41.6	58	55.6	–	55.9	–
